Experiment [1] in a line: Inhibition of platelet-activating factor receptor binding activity in dog platelets using [3H]-PAF as radioligand.
Assay in experiment [2]: as above
This is another data set of the same source.

SMILES strings stand for the structures.

One may read the IC50 as the point on the concentration scale where inhibition reaches its midpoint. High values mean weaker potency in that assay, low ones greater potency in that assay. In experiment [1], `O=C(NCCCCc1cccnc1)c1ccc(-c2cccc(O)c2)cc1` displayed a concentration for half-maximal inhibition (IC50) of 300 nM.
In experiment [1], `COc1cccc(-c2ccc(C(=O)NCCCCc3cccnc3)cc2)c1` came in with an IC50 of 280 nM.
For `COc1ccc(-c2ccc(C(=O)NCCCCc3cccnc3)cc2[N+](=O)[O-])cc1OC`, in experiment [1], the 50% inhibitory concentration (IC50) is 200 nM.
Regarding `CCCc1cc(C(=O)N[C@H](C)CCCc2cccnc2)ccc1-c1ccc(OC)c(OC)c1`, the IC50 in experiment [1] amounted to 50 nM.
Still for that read-out and setting: the value for `COc1ccc(-c2ccc(C(=O)NCCCCc3cccnc3)cc2-c2ccc(OC)cc2)cc1` was 125 nM; that for `C[C@H](CCCc1cccnc1)NC(=O)c1ccc(-c2ccccc2)c(-c2ccccc2)c1` was 50 nM; that for `C=CCc1cc(C(=O)N[C@H](C)CCCc2cccnc2)ccc1-c1ccc(OC)c(OC)c1` was 80 nM.
`COc1ccc(-c2ccc(C(=O)N[C@H](C)CCCc3cccnc3)cc2Br)cc1OC` returned an IC50 in experiment [1] of 180 nM.
`Cc1ccc(-c2ccc(C(=O)NCCCCc3cccnc3)cc2)cc1C` displayed an IC50 in experiment [1] of 200 nM.
Compound `COc1ccc(-c2ccc(C(=S)N[C@H](C)CCCc3cccnc3)cc2)cc1OC` came in with an IC50 in experiment [1] of 60 nM.
In experiment [1], `COc1ccc(-c2ccc(C(=O)NCCCCc3cccnc3)cc2Br)cc1OC` returned an IC50 of 220 nM.
Turning to `COc1ccc(-c2ccc(C(=O)N[C@H](C)CCCc3cccnc3)cc2[N+](=O)[O-])cc1OC`, in experiment [1], the IC50 worked out at 200 nM.
As to `COc1ccc(-c2ccc(C(=O)NCCCCc3cccnc3)cc2)cc1OC`, in experiment [1], the IC50 is 400 nM.
As for `COc1ccc(-c2ccc(C(=O)NCCCCc3cccnc3)cc2OC)cc1OC`, in experiment [1], the IC50 was 300 nM.
Compound `Cc1cccc(-c2ccc(C(=O)NCCCCc3cccnc3)cc2)c1` registered an IC50 in experiment [1] of 500 nM.
In experiment [1], `COc1cccc(-c2ccc(C(=O)N[C@H](C)CCCc3cccnc3)cc2)c1` gave an IC50 of 20 nM.
In the case of `O=C(NCCCCc1cccnc1)c1ccc(-c2cccc(OC3=CC=CC=CC3)c2)cc1`, in experiment [2], the IC50 was found to be 700 nM.
In experiment [1], `O=C(NCCCCc1cccnc1)c1ccc(-c2cccc(F)c2)c(F)c1` came in with a concentration for half-maximal inhibition (IC50) of 2100 nM.
As for `CCc1cc(C(=O)N[C@H](C)CCCc2cccnc2)ccc1-c1ccc(OC)c(OC)c1`, in experiment [1], the IC50 was determined as 4 nM.

The record behind these values is BindingDB's records for doi:10.1021/jm00128a025 (Roche Research Center, 1989).
